Here are results for 15 molecules from patent publication US20060275816A1, “Methods for identifying drug pharmacology and toxicology” (priority 2005, published 2006).

In data set [1] the test system is HepG2 cells. In words: Cytotoxicity, CellTiter Blue Cell Viability Assay (LD50). Format: cell-based. As to the method: FIG. 3 provides a graphical illustration of an experimental approach used to assess candidate compounds. (1) Cells were plated and allowed to adhere for one day. At that time various concentrations of compound were added to cells and incubated for an additional 72 hours. […] (2) Cells were plated as above and treated with compound at the predetermined LD50 concentration. Following 24 hours incubation in the presence of compound, cells were collected, RNA was harvested and 3) analyzed using the RiboChip.
In an embodiment, human hepatocellular carcinoma HepG2 cells were used to test the effect of a compound on liver biology and toxicology. […] In an embodiment, a single acute dose of a compound is used. […] The choice of high dose identifies the possible modes of toxicity and detects low-incidence responses.
Cells were maintained as recommended in Minimal Essential Medium (MEM) (Gibco-BRL, a Division of Invitrogen, Carlsbad, Calif.) with 10% fetal bovine serum (FBS, HyClone, Logan, Utah) supplemented with antibiotics in p150 plates at 37° C., 5% CO2. Cells were split 1:5 and fresh media added every 3 days.
Cytotoxicity was assessed using the Alamar Blue-based CellTiter™ Blue Cell Viability Assay (Promega, Madison, Wis.) to determine the viable cell fraction that remained following a 72 hour treatment period. Cells (˜8,000 cells/well) were plated in 96 well BioCoat collagen coated plates (Becton Dickinson, Franklin Lakes, N.J.) using standard media. […] Cells were then allowed to recover for 24 hours at 37° C., 5% CO2. A two (2) fold dilution series was prepared for each compound starting at 3.0 mM in MEM containing 0.1% BSA (instead of 10% FBS) but without phenol red or antibiotics. Following the cell recovery period, the media was removed and fresh media containing compound was added. Treatments were performed in triplicate for each compound at each dose. Cells were incubated with compound for 72 hours at 37° C., 5% CO2. The viable cell fraction remaining was determined by washing the wells with fresh media without indicator, lysing the remaining live cells by adding 0.9% Triton X-100 (Sigma, St. Louis, Mo.) in water, and performing the Alamar Blue assay as described in the CellTiter™ Blue Cell Viability Assay product literature.

Data set [2] deals with HepG2 cells. Description: Apoptosis, Apo-ONE Homogeneous Caspase-3/7 Assay. Format: cell-based, human. The note with it: 24 hours.
For data set [3] the following is noted: patients; Lebovitz 2002; cited from earlier work.
The next data set deals with CCR2 mRNA. In words: Quantitative Real Time PCR of CCR2 mRNA in TZD-treated cells. Conditions: HepG2 cells, LD50 concentration, 24 hours, compound alone. A general note: Real-time PCR tracks product formation cycle by cycle.
The mark [4] stands for this setting: HepG2 cells, concentration giving 50% cell death after 72 hours.

Entries after “also recorded” stand apart in the source; their conditions may differ. Like-named read-outs stand apart in the source and are kept apart here.

Turning to `CCCCC/C=C/C=C1/C(=O)C=C[C@@H]1C/C=C\CCCC(=O)O` [15-Deoxy-Δ^12,14-Prostaglandin J2], the LD50 in the data set on HepG2 cells [1] was found to be 34 µM.

On to “N-Acetly-Asp-Glu-Val-Asp-aldehyde [DEVD]”, for which, in the data set with HepG2 cells [2] (co-administered with TZDs), the “block of TZD-induced apoptosis” value was “efficiently blocked”.

As for `Cc1c(C)c2c(c(C)c1O)CCC(C)(COc1ccc(CC3SC(=O)NC3=O)cc1)O2` (stereo not drawn) [Troglitazone], the “induction of apoptosis (Caspase 3/7 activity)” value (from here on “induction of apoptosis”) with HepG2 cells [2] was “potent inducers of apoptosis”. In addition, the “toxicity that ended marketing or development” value in data set [3] is given as “hepatotoxicity”. For the same molecule, in the data set on CCR2 mRNA, the “increased CCR2 expression relative to control” value is 6 ×. For the same molecule, the “cell death at 175 μM” value in the data set with HepG2 cells [1] was “significant cell death”. Further, the LD50 in the data set with HepG2 cells [1] (setting [4]) is 18 µM.

Turning to `CC1(COc2ccc(CC3SC(=O)NC3=O)cc2)CCCCC1` (stereo not drawn) [Ciglitazone], in the data set with HepG2 cells [2], the “induction of apoptosis” value is given as “potent inducers of apoptosis”. The “cell death at 175 μM” value in the data set with HepG2 cells [1] was “significant cell death”. In the data set with HepG2 cells [1] (human, 72 h), this molecule returned an LD50 of 76 µM.

In the case of `CCCCCCCCCCCCCCC(Br)C(=O)O` (stereo not drawn) [2-Bromohexadecanoic Acid], the LD50 in the data set with HepG2 cells [1] (setting [4]) is 94 µM.

In the data set on HepG2 cells [1], `Cc1cccc(Nc2cc(Cl)nc(SCC(=O)O)n2)c1C` [Wyeth14643] returned an LD50 of 226 µM.

`CCCCC(CC)COC(=O)c1ccccc1C(=O)OCC(CC)CCCC` (stereo not drawn) [Diethylhexylphthalate]: the LD50 in the data set on HepG2 cells [1] (setting [4]) was 34 µM.

For `Cc1ccc(C)c(OCCCC(C)(C)C(=O)O)c1` [Gemfibrozil], the LD50 in the data set on HepG2 cells [1] (setting [4]) was determined as 163 µM.

In turn, `CC(C)OC(=O)C(C)(C)Oc1ccc(C(=O)c2ccc(Cl)cc2)cc1` [Fenofibrate] came in with an LD50 with HepG2 cells [1] (human, 72 h) of 500 µM.

With `O=C(Nc1ccccc1)c1cc([N+](=O)[O-])ccc1Cl` [GW-9662], the LD50 with HepG2 cells [1] turned out to be 125 µM.

Regarding `CN(CCOc1ccc(CC2SC(=O)NC2=O)cc1)c1ccccn1` (stereo not drawn) [Rosiglitazone], the “induction of apoptosis” value in the data set with HepG2 cells [2] was “did not induce apoptosis at all or only modestly did so”.

On to `CCOC(=O)C(C)(C)Oc1ccc(Cl)cc1` [Clofibrate], for which, in the data set with HepG2 cells [1] (setting [4]), the LD50 was 240 µM.

`CC(C)(Oc1ccc(CCNC(=O)c2ccc(Cl)cc2)cc1)C(=O)O` [Bezafibrate] had an LD50 in the data set on HepG2 cells [1] (setting [4]) of 1940 µM.

On to `CCc1ccc(CCOc2ccc(CC3SC(=O)NC3=O)cc2)nc1` (stereo not drawn) [Pioglitazone], for which the “induction of apoptosis” value in the data set on HepG2 cells [2] is “did not induce apoptosis at all or only modestly did so; also recorded: undetectable”.

`O=C(O)C(F)(F)C(F)(F)C(F)(F)C(F)(F)C(F)(F)C(F)(F)C(F)(F)F` [Perfluourooctanoic Acid]: the LD50 with HepG2 cells [1] (setting [4]) was determined as 191 µM.
